Data published in patent US20100311827A1, “Chlorogenic acid derivatives and their use as anti-fungal agents” (priority 2006, published 2010).
Converted amounts (≈) assume the structure as drawn. Where two headings read alike, the source gives them in different places.

Tests used:
[1] = test system: Candida albicans (ATCC90028); experiment: Broth dilution anti-fungal susceptibility (NCCLS M27-A2), MIC; assay type: cell-based; details: for MIC: Candida albicans
Method: (§1) The anti-fungal activity of the compounds according to the invention were evaluated against Candida albicans (ATCC90028), Cryptococcus neoformans (ATCC32045), and Aspergillus fumigatus (ATCC13073) according to NCCLS guidelines (NCCLS reference method for broth dilution anti-fungal susceptibility testing of yeasts; approved standard-second edition, M27-A2, National Committee for Clinical Laboratory Standards, Villanova, Pa. 2003; and NCCLS reference method for broth dilution anti-fungal susceptibility testing of filamentous fungi; approved standard, M38-A, National Committee for Clinical Laboratory Standards, Villanova, Pa. 2002).
(§2) The medium required for the evaluation of anti-fungal activity was prepared as follows. RPMI 1640 broth+MOPS, pH adjusted and filter sterilized. Sabouraud Dextrose Agar (SDA) plates were used for growing fungi.
(§3) All test or candidate compounds were prepared as 5 mg/ml stock solutions in DMSO and further diluted according to the NCCLS guidelines with sterile water or appropriate diluent. A working stock of 256 μg/ml was used to prepare 1:2 serial dilutions in 96-well plates.
(§4) The inoculums of fungi were prepared by making a direct sterile water suspension of colonies/spores from SDA plates. 0.1% Tween 20 was used for A. fumigatus for better dispersal of spores in suspension. For C. albicans and C. neoformans overnight cultures were used. A. fumigatus required longer incubation. Each fungal suspension was adjusted to read between 70 and 75% transmittance at 530 nm (0.5 McFarland Standard). These suspensions were further diluted 1/1000 in appropriate broth for inoculating the 96-well plates.
(§5) All plates were incubated at 35° C. for the following times: 18 hours to 24 hours for C. albicans, 48 hours for A. fumigatus, and 48 to 72 hours for C. neoformans.

[2] = test system: Cryptococcus neoformans (ATCC32045); experiment: as above; assay type: cell-based; details: Table 1, MICs read at 80% inhibition, 35° C., 48 to 72 hours, tested 0.12 to 64 μg/ml
Method: as §1, §2, §3, §4, §5

[3] = test system: Aspergillus fumigatus (ATCC13073); experiment: Broth dilution anti-fungal susceptibility of filamentous fungi (NCCLS M38-A), MIC; assay type: cell-based; details: Table 1, MICs read at 80% inhibition, 35° C., 48 hours, tested 0.12 to 64 μg/ml
Method: as §1, §2, §3, §4, §5

brine shrimp = assay type: in vivo; details: for % BL (brine shrimp lethality): at 100 μg/ml
Method: The general in vitro toxicity of these compounds can be tested using the Brine Shrimp Lethality assay, as described in Mclaughlin, J. L. in Methods in Plant Biochemistry. Ed. K. Hostettmann, Academic Press, London, 1991; Vol. 6, pp. 1-32. Typically, candidate compounds are diluted in seawater to a suitable concentration and added to second instar larvae of Artemia salina. After a suitable period of time, for example 24 hours, the survivors are counted. In vitro acute toxicity testing of a compound of Formula I can also be performed using mammalian cell lines (see, for example, Ekwall, B., Ann. N.Y. Acad. Sci., (1983) 407:64-77). Selection of an appropriate cell line is dependent on the potential application of the candidate compound and can be readily determined by one skilled in the art.
To test the general toxicity of these compounds, Brine Shrimp Lethality assay was carried out according to Mclaughlin, J. L. in Methods in Plant Biochemistry. Ed. K. Hostettmann, Academic Press, London, 1991; Vol. 6, pp. 1-32. The compounds were tested at 100 μg/ml.

Candida krusei ATCC6258 = experiment: Broth dilution anti-fungal susceptibility, MIC (as in Example 24); assay type: cell-based; details: for MIC: Pichia kudriavzevii, ATCC6258, read-out: MIC C. krusei
[4] = ATCC90028, Table 1, MICs read at 80% inhibition, 35° C., 18 to 24 hours, tested 0.12 to 64 μg/ml
[5] = ATCC90028, Table 3 (Example 26, additional testing), MICs read at 80% inhibition, 0.12 to 64 μg/ml, read-out: MIC C. albicans
[6] = comparison in words, from Table 3
[7] = Table 3 (Example 26), MICs read at 80% inhibition, 0.12 to 64 μg/ml

Row | SMILES | MIC [1, 4] [µg/mL] | MIC [2] [µg/mL] | MIC [3] [µg/mL] | % BL (brine shrimp lethality) (brine shrimp) [%] | MIC [1, 5] [µg/mL] | inhibitory activity against C. albicans compared to chlorogenic acid [1, 6] | toxicity on brine shrimp compared to chlorogenic acid (brine shrimp; comparison in words, from Table 2) | MIC (Candida krusei ATCC6258; [7]) [µg/mL] | inhibitory activity against C. krusei compared to chlorogenic acid (Candida krusei ATCC6258; [6]) | MIC C. albicans ([1]; Table 3 (Example 26, additional testing), MICs read at 80% inhibition, 0.12 to 64 μg/ml) [µg/mL] | MIC C. krusei (Candida krusei ATCC6258; [7]) [µg/mL]
1 | CCCCCCCCOc1ccc(NC(=O)C(CCCNC(=O)OC(C)(C)C)NC(=O)C2(O)CC(OC(=O)C(CCc3ccc(O)cc3)NC(=O)OCC3c4ccccc4-c4ccccc43)C3OC(C)(C)OC3C2)cc1 (centres unmarked) [Compound 20] | > 64 | > 64 | > 64 | 10.5 | – | – | – | – | – | – | –
2 | CCCCCCCCOc1ccc(NC(=O)C(CC(=O)O)NC(=O)C2(O)CC(O)C(O)C(OC(=O)/C=C/c3ccc(O)c(O)c3)C2)cc1 (centres unmarked) [Compound 13] | 64 (≈ 95.1 µM) | 16 (≈ 23.8 µM) | > 64 | 6.3 | – | – | – | – | – | – | –
3 | CCCCCCCCOc1ccc(NC(=O)C2(O)CC(O)C(O)C(OC(=O)/C=C/c3ccc(O)c(O)c3)C2)cc1 (centres unmarked) [Compound 2] | 8 (≈ 14.3 µM) | 2 (≈ 3.59 µM) | > 64 | 50.0 | – | – | – | – | – | – | –
4 | CCCCCCCCOc1ccc(NC(=O)C(CCCN)NC(=O)C2(O)CC(O)C(O)C(OC(=O)/C=C/c3ccc(O)cc3)C2)cc1 (centres unmarked) [Compound 19] | 8 (≈ 12.2 µM) | 4 (≈ 6.1 µM) | 32 (≈ 48.8 µM) | 100 | – | – | – | – | – | – | –
5 | CCCCCCCCOc1ccc(NC(=O)C(NC(=O)C2(O)CC(O)C(O)C(OC(=O)/C=C/c3ccc(O)c(O)c3)C2)C(C)O)cc1 (centres unmarked) [Compound 12] | 8 (≈ 12.1 µM) | 2 (≈ 3.04 µM) | > 64 | 12.5 | 4 (≈ 6.07 µM) | more potent inhibitory activity | less toxicity | 2 (≈ 3.04 µM) | more potent inhibitory activity | – | –
6 | CCCCCCCCOc1ccc(NC(=O)C(CCCN)NC(=O)C2(O)CC(O)C(O)C(OC(=O)CCc3ccc(O)c(O)c3)C2)cc1 (centres unmarked) [Compound 16] | 16 (≈ 23.7 µM) | 8 (≈ 11.9 µM) | 64 (≈ 95 µM) | 10.5 | – | – | – | – | – | – | –
7 | CCCCCCCCOc1ccc(NC(=O)C(CCCNC(=O)OC(C)(C)C)NC(=O)C2(O)CC(O)C(O)C(OC(=O)CCc3ccc(O)c(O)c3)C2)cc1 (centres unmarked) [Compound 15] | > 64 | 4 (≈ 5.17 µM) | > 64 | 21.1 | – | – | – | – | – | – | –
8 | CCCCCCCCOc1ccc(NC(=O)C(COC(C)(C)C)NC(=O)C2(O)CC(OC(=O)/C=C/c3ccc(O)c(O)c3)C3OC(C)(C)OC3C2)cc1 (centres unmarked) [Compound 3] | 32 (≈ 43.2 µM) | 2 (≈ 2.7 µM) | > 64 | 31.3 | – | – | – | – | – | – | –
9 | O=C(/C=C/c1ccc(O)c(O)c1)O[C@@H]1C[C@](O)(C(=O)O)C[C@@H](O)[C@H]1O [Chlorogenic acid] | – | – | – | 100 | > 64 | – | – | > 64 | – | – | –
10 | CCCCCCCCOc1ccc(NC(=O)C(CO)NC(=O)C2(O)CC(O)C(O)C(OC(=O)/C=C/c3ccc(O)c(O)c3)C2)cc1 (centres unmarked) [Compound 11] | > 64 | 4 (≈ 6.2 µM) | > 64 | 18.8 | – | – | – | – | – | – | –
11 | CCCCCCCCOc1ccc(NC(=O)C(CCCNC(=O)OC(C)(C)C)NC(=O)C2(O)CC(OC(=O)/C=C/c3ccc(O)c(O)c3)C3OC(C)(C)OC3C2)cc1 (centres unmarked) [Compound 6] | > 64 | 2 (≈ 2.46 µM) | > 64 | 12.5 | – | – | – | – | – | – | –
12 | CCCCCCCCOc1ccc(NC(=O)C(CCCNC(=O)OC(C)(C)C)NC(=O)C2(O)CC(O)C(O)C(OC(=O)/C=C/c3ccc(O)cc3)C2)cc1 (centres unmarked) [Compound 18] | > 64 | > 64 | > 64 | 31.6 | – | – | – | – | – | – | –
13 | CCCCCCCCOc1ccc(NC(=O)C(CCCNC(=O)OC(C)(C)C)NC(=O)C2(O)CC(O)C(O)C(OC(=O)/C=C/c3ccc(O)c(O)c3)C2)cc1 (centres unmarked) [Compound 10] | 2 (≈ 2.59 µM) | 1 (≈ 1.3 µM) | > 64 | 25.0 | – | – | – | – | – | – | –
14 | CCCCCCCCOc1ccc(NC(=O)C(CCCNC(=O)OC(C)(C)C)NC(=O)C2(O)CC(OC(=O)/C=C/c3ccc(O)cc3)C3OC(C)(C)OC3C2)cc1 (centres unmarked) [Compound 17] | > 64 | > 64 | > 64 | 0.0 | – | – | – | – | – | – | –
15 | C[C@@H]1[C@H](O)[C@@H](C)/C=C/C=C/C=C/C=C/C=C/C=C/C=C/[C@H](O[C@@H]2O[C@H](C)[C@@H](O)[C@H](N)[C@@H]2O)C[C@@H]2O[C@](O)(C[C@@H](O)C[C@@H](O)[C@H](O)CC[C@@H](O)C[C@@H](O)CC(=O)O[C@H]1C)C[C@H](O)[C@H]2C(=O)O [Amphotericin B, reference compound] | – | – | – | – | – | – | – | – | – | 0.5 (≈ 0.541 µM) | 1 (≈ 1.08 µM)
16 | CCCCCCCCOc1ccc(NC(=O)C2(O)CC(OC(=O)/C=C/c3ccc(O)c(O)c3)C3OC(C)(C)OC3C2)cc1 (centres unmarked) [Compound 1] | 16 (≈ 26.8 µM) | 2 (≈ 3.35 µM) | > 64 | 100.0 | – | – | – | – | – | – | –
17 | CCCCCCCCOc1ccc(NC(=O)C(CCCN)NC(=O)C2(O)CC(O)C(O)C(OC(=O)/C=C/c3ccc(O)c(O)c3)C2)cc1 (centres unmarked) [Compound 14] | 4 (≈ 5.95 µM) | 1 (≈ 1.49 µM) | 16 (≈ 23.8 µM) | 37.5 | – | – | – | – | – | – | –
18 | CCCCCCCCOc1ccc(NC(=O)C(NC(=O)C2(O)CC(OC(=O)/C=C/c3ccc(O)c(O)c3)C3OC(C)(C)OC3C2)C(C)OC(C)(C)C)cc1 (centres unmarked) [Compound 4] | 32 (≈ 42.4 µM) | 4 (≈ 5.3 µM) | > 64 | 6.2 | – | – | – | – | – | – | –
19 | CCCCCCCCOc1ccc(NC(=O)C(CC(=O)OC(C)(C)C)NC(=O)C2(O)CC(OC(=O)/C=C/c3ccc(O)c(O)c3)C3OC(C)(C)OC3C2)cc1 (centres unmarked) [Compound 5] | > 64 | 2 (≈ 2.6 µM) | > 64 | 56.2 | – | – | – | – | – | – | –
20 | CCCCCCCCOc1ccc(NC(=O)C(COC(C)(C)C)NC(=O)C2(O)CC(O)C(O)C(OC(=O)/C=C/c3ccc(O)c(O)c3)C2)cc1 (centres unmarked) [Compound 7] | 4 (≈ 5.71 µM) | 2 (≈ 2.85 µM) | > 64 | 31.1 | – | – | – | – | – | – | –
21 | CCCCCCCCOc1ccc(NC(=O)C(CCCNC(=O)OC(C)(C)C)NC(=O)C2(O)CC(O)C(O)C(OC(=O)C(N)CCc3ccc(O)cc3)C2)cc1 (centres unmarked) [Compound 22] | > 64 | 4 (≈ 5.08 µM) | > 64 | 36.8 | – | – | – | – | – | – | –
22 | CCCCCCCCOc1ccc(NC(=O)C(CC(=O)OC(C)(C)C)NC(=O)C2(O)CC(O)C(O)C(OC(=O)/C=C/c3ccc(O)c(O)c3)C2)cc1 (centres unmarked) [Compound 9] | 2 (≈ 2.74 µM) | 2 (≈ 2.74 µM) | > 64 | 37.5 | – | – | – | – | – | – | –
23 | CCCCCCCCOc1ccc(NC(=O)C(CCCNC(=O)OC(C)(C)C)NC(=O)C2(O)CC(OC(=O)C(N)CCc3ccc(O)cc3)C3OC(C)(C)OC3C2)cc1 (centres unmarked) [Compound 21] | > 64 | > 64 | > 64 | 47.7 | – | – | – | – | – | – | –
24 | CCCCCCCCOc1ccc(NC(=O)C(CCCN)NC(=O)C2(O)CC(O)C(O)C(OC(=O)C(N)CCc3ccc(O)cc3)C2)cc1 (centres unmarked) [Compound 23] | 64 (≈ 93.2 µM) | 2 (≈ 2.91 µM) | > 64 | 73.7 | – | – | – | – | – | – | –
25 | OC(Cn1cncn1)(Cn1cncn1)c1ccc(F)cc1F [Fluconazole, reference compound] | 0.25 (≈ 0.816 µM) | 0.5 (≈ 1.63 µM) | > 64 | – | – | – | – | – | – | – | –
